Experimental data reported in patent US5447720A, “Composition and method for treatment of hemoglobinopathies” (Fadulu; Sunday O., priority 1993, dated 1995).

What was measured:
sickling [1] = conditions: words; cited from earlier work
HbF = conditions: sickle cell patients; words; cited from earlier work
sickling [2] = assay: Anti-sickling activity of acid components (test not specified); conditions: words

| Compound | anti-sickling activity of less polar acids (sickling [2]) | further results |
| --- | --- | --- |
| O=C(O)c1ccccc1CO [2-hydroxymethylbenzoic acid] |  | in vitro anti-sickling effect (literature) (sickling [1]): in vitro nonsickling characteristics |
| Nc1ncn([C@@H]2O[C@H](CO)[C@@H](O)[C@H]2O)c(=O)n1 [5-azacytidine] |  | effect on HbF levels (literature) (HbF): increased HbF levels |
| CCCCC/C=C\C/C=C\CCCCCCCC(=O)O [linoleic] | little if any anti-sickling activity |  |
| CC/C=C\C/C=C\C/C=C\CCCCCCCC(=O)O [linolenic] | little if any anti-sickling activity |  |
| CCCCCCCC/C=C\CCCCCCCC(=O)O [oleic acids] | little if any anti-sickling activity |  |
| CCCCCCCCCCCCCCCCCC(=O)O [stearic] | little if any anti-sickling activity |  |
| arginine butyrate |  | effect on HbF levels (literature) (HbF): rapid stimulation of the HbF |
